Test results taken from patent publication US10189859B2, “Derivatives of 6-(2,3-dichlorophenyl)-1,2,4-triazin-5-amine” (Nektar Therapeutics, priority 2013, dated 2019).
Values joined by “and” are separate entries in the source; they are usually repeats but may differ in a detail not shown here. Equal values may be shown once. Where a name gives a salt, the structure may show the parent alone. Read-outs that look alike come from different tables or passages of the source.

What was measured:
[1] = target: Nav1.7 sodium channels (human SCN9A gene) (Homo sapiens (Human), UniProt Q15858); assay: Automated patch clamp (IonWorks Barracuda) of Nav1.7 stably expressed in CHO cells; assay type: cell-based
Procedure: The potencies of the compounds provided herein to block specific Na+ channels was measured using automated patch clamp electrophysiologically of Nav1.7 sodium channels (human SCN9A gene) stably expressed in CHO cells using the IonWorks™ Barracuda system. Currents were measured from the whole cell patch configuration. From a holding potential of −90 mV, membranes were subjected to a 200 ms pre-pulse to −120 mV, then pulsed to 0 mV to measure blockade of the tonic (resting) state. Inactivated state block was elicited by repolarization to −100 mV (20 ms pulse duration), followed by depolarization to 0 mV (20 ms pulse duration). Peak inward Na+ currents were measured in the presence of vehicle or various concentrations of the test compound to determine the percent block of current. Concentration-response relationships were used to calculate IC50 values for the illustrative compounds.

[2] = Pharmacokinetics after intravenous or oral dosing, plasma LC/MS/MS; assay type: in vivo; conditions: fasted male Sprague Dawley rats
Procedure: Fasted, male Sprague Dawley rats were dosed intravenously or orally. Blood samples were collected at pre-determined time points and plasma was separated. Test article concentrations were determined in plasma by a LC/MS/MS method. Non compartmental analysis was performed to estimate the area under the plasma concentration vs. time curve (AUC). Clearance parameters (CL), bioavailabilities (F) and half-lives were calculated.

[3] = read-out: Inactivated state IC50
[4] = inactivated state block, CHO cells, read-out: Inactivated state IC50
[5] = tonic (resting) state block, CHO cells, read-out: Tonic state IC50

Chain of Nav1.7 sodium channels (human SCN9A gene) (Q15858 whole entry): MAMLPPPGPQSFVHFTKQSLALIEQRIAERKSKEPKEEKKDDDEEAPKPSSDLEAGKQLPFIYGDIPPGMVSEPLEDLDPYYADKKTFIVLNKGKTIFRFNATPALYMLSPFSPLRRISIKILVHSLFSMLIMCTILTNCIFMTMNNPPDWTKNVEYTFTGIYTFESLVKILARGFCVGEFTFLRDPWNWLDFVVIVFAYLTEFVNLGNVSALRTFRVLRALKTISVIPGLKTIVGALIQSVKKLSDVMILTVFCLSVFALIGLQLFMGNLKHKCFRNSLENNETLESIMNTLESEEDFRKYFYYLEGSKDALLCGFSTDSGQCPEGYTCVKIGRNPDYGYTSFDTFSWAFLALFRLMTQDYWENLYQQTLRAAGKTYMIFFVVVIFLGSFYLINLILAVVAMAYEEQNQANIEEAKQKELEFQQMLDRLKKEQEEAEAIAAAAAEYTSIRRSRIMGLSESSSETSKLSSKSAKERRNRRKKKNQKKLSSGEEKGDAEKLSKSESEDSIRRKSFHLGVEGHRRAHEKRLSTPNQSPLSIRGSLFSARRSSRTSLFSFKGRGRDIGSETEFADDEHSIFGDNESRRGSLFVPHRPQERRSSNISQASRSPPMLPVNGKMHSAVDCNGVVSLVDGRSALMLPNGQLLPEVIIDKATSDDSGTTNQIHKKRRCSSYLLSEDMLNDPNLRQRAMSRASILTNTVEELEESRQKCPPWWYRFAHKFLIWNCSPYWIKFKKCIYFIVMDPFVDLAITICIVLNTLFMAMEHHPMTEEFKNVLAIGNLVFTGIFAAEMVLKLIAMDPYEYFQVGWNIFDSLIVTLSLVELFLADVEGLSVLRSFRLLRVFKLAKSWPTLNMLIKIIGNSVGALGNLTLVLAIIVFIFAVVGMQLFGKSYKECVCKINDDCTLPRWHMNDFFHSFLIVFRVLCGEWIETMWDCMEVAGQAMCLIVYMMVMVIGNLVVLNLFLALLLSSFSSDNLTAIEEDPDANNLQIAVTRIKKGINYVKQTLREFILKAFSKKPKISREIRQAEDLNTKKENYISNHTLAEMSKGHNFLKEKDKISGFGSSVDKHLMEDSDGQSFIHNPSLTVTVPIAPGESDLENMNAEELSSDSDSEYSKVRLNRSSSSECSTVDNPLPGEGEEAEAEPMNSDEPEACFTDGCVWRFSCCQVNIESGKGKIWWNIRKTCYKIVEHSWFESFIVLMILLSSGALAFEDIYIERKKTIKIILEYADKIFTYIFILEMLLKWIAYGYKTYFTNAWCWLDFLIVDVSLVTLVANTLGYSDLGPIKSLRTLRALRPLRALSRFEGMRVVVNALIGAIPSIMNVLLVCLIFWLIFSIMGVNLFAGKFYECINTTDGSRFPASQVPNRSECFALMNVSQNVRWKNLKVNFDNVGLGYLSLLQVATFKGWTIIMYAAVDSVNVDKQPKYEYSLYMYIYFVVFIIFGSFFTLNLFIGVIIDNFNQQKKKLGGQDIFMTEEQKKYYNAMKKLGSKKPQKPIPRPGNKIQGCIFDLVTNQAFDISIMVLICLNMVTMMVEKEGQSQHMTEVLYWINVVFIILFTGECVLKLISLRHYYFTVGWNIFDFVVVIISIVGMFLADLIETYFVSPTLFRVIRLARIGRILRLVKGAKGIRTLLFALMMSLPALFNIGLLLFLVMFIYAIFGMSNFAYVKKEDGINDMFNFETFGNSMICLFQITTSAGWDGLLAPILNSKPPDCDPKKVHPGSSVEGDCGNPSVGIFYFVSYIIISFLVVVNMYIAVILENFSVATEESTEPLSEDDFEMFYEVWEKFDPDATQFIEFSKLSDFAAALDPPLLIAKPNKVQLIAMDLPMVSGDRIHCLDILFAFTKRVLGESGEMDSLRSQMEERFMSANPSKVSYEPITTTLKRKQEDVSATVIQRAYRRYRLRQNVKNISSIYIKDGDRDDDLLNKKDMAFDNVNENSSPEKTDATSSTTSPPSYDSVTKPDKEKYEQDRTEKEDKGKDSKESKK

Compound	exposure after oral dosing (qualitative ranking) [2]	pharmacokinetics (qualitative ranking of the compounds tested) [2]	IC50 [1, 3]	IC50 ([1]; read-out: Tonic state IC50) [µM]	IC50 [1, 4] [µM]	IC50 [1, 5] [µM]
CS(=O)(=O)CCN1CCN(c2nnc(-c3cccc(Cl)c3Cl)c(N)n2)CC1 [Compound 202, 6-(2,3-dichlorophenyl)-3-(4-(2-(methylsulfonyl)ethyl)piperazin-1-yl)-1,2,4-triazin-5-amine]	best exposure after oral dosing		> 300 µM	> 200		
Nc1nc(N2CCNCC2)nnc1-c1cccc(Cl)c1Cl [Compound 79, 6-(2,3-dichlorophenyl)-3-(piperazin-1-yl)-1,2,4-triazin-5-amine]	best exposure after oral dosing				95.3	> 200
Nc1nc(N2CCN3C(=O)OC[C@@H]3C2)nnc1-c1cccc(Cl)c1Cl [Compound 128, (S)-7-(5-amino-6-(2,3-dichlorophenyl)-1,2,4-triazin-3-yl)tetrahydro-1H-oxazolo[3,4-a]pyrazin-3(5H)-one HCl salt]	best exposure after oral dosing	most favorable pharmacokinetics	> 300 µM	> 200		
Nc1nc(N2CCN(C3CCOCC3)CC2)nnc1-c1cccc(Cl)c1Cl [Compound 120, 3-N-(4-(tetrahydro-2H-pyran-4-yl)piperazin-1-yl) lamotrigine di HCl]	best exposure after oral dosing	most favorable pharmacokinetics				
Nc1nc(N2CCN(CCOCCO)CC2)nnc1-c1cccc(Cl)c1Cl [Compound 201, 2-(2-(4-(5-amino-6-(2,3-dichlorophenyl)-1,2,4-triazin-3-yl)piperazin-1-yl)ethoxy)ethanol]	best exposure after oral dosing				202	> 200
CC(C)OC[C@H](O)CN1CCN(c2nnc(-c3cccc(Cl)c3Cl)c(N)n2)CC1 [Compound 73, (R)-1-(4-(5-Amino-6-(2,3-dichlorophenyl)-1,2,4-triazin-3-yl)piperazin-1-yl)-3-isopropoxypropan-2-ol]	best exposure after oral dosing				< 50	179
CC(CO)N1CCN(c2nnc(-c3cccc(Cl)c3Cl)c(N)n2)CC1 (centres unmarked) [Compound 89, 2-(4-(5-amino-6-(2,3-dichlorophenyl)-1,2,4-triazin-3-yl)piperazin-1-yl)propan-1-ol]	best exposure after oral dosing				66.6	> 200
Nc1nc(N2CC(O)C2)nnc1-c1cccc(Cl)c1Cl [Compound 129, 3-N-(3-hydroxyazetin-1-yl) lamotrigine]	best exposure after oral dosing	most favorable pharmacokinetics				
Nc1nc(N2CC(N)C2)nnc1-c1cccc(Cl)c1Cl [Compound 126, 5-amino-3-N-(3-aminoazetidinyl) lamotrigine diHCl salt]	best exposure after oral dosing					
Nc1nc(N2CCN(CC(O)CO)CC2)nnc1-c1cccc(Cl)c1Cl (centres unmarked) [Compound 92, 3-(4-(5-amino-6-(2,3-dichlorophenyl)-1,2,4-triazin-3-yl)piperazin-1-yl)propane-1,2-diol]	best exposure after oral dosing				> 300	> 200
Nc1nc(N2CC(O)(C(F)(F)F)C2)nnc1-c1cccc(Cl)c1Cl [Compound 165, 3-N-(3-hydroxy-3-trifluoromethyl)azetidinyl lamotrigine]	best exposure after oral dosing					
COC[C@@H](O)CN1CCN(c2nnc(-c3cccc(Cl)c3Cl)c(N)n2)CC1 [Compound 98, (S)-1-(4-(5-amino-6-(2,3-dichlorophenyl)-1,2,4-triazin-3-yl)piperazin-1-yl)-3-methoxypropan-2-ol]	best exposure after oral dosing		57.5 µM and < 50 µM	> 200		
Nc1nc(N2CCN(CCO)CC2)nnc1-c1cccc(Cl)c1Cl [Compound 200, 2-(4-(5-amino-6-(2,3-dichlorophenyl)-1,2,4-triazin-3-yl)piperazin-1-yl)ethanol]	best exposure after oral dosing				120	> 200
COC[C@H](O)CN1CCN(c2nnc(-c3cccc(Cl)c3Cl)c(N)n2)CC1 [Compound 96, (R)-1-(4-(5-amino-6-(2,3-dichlorophenyl)-1,2,4-triazin-3-yl)piperazin-1-yl)-3-methoxypropan-2-ol]	best exposure after oral dosing	most favorable pharmacokinetics	< 50 µM	> 200		
CCOC[C@H](O)CN1CCN(c2nnc(-c3cccc(Cl)c3Cl)c(N)n2)CC1 [Compound 55, (R)-1-(4-(5-Amino-6-(2,3-dichlorophenyl)-1,2,4-triazin-3-yl)piperazin-1-yl)-3-ethoxypropan-2-ol]	best exposure after oral dosing				62.3	> 200
Nc1nc(N2CCN3C(=O)COC[C@H]3C2)nnc1-c1cccc(Cl)c1Cl [Compound 130, (R)-8-(5-amino-6-(2,3-dichlorophenyl)-1,2,4-triazin-3-yl)hexahydropyrazino[2,1-c][1,4]oxazin-4(3H)-one HCl salt]	best exposure after oral dosing	most favorable pharmacokinetics	204 µM	> 200		
CC(C)(CO)N1CCN(c2nnc(-c3cccc(Cl)c3Cl)c(N)n2)CC1 [Compound 90, 2-(4-(5-amino-6-(2,3-dichlorophenyl)-1,2,4-triazin-3-yl)piperazin-1-yl)-2-methylpropan-1-ol]	best exposure after oral dosing		56.2 µM	183		

Continued, in another order:

exposure after oral dosing (qualitative ranking) [2]	pharmacokinetics (qualitative ranking of the compounds tested) [2]	Compound	IC50 [1, 3]	IC50 ([1]; read-out: Tonic state IC50) [µM]	IC50 [1, 4] [µM]	IC50 [1, 5] [µM]
best exposure after oral dosing		C[C@@H]1CN(c2nnc(-c3cc(F)cc(Cl)c3Cl)c(N)n2)C[C@H](C)N1 [Compound 119, 3-N-(3′,5′-dimethylpiperazin-1-yl) 5′-fluoro lamotrigine]				
best exposure after oral dosing		COCCOCC(C)(CO)Nc1nnc(-c2cccc(Cl)c2Cl)c(N)n1 (centres unmarked) [Compound 49, 2-((5-Amino-6-(2,3-dichlorophenyl)-1,2,4-triazin-3-yl)amino)-3-(2-methoxyethoxy)-2-methylpropan-1-ol]				
best exposure after oral dosing	most favorable pharmacokinetics	COC[C@@H](O)COC1CN(c2nnc(-c3cccc(Cl)c3Cl)c(N)n2)C1 [Compound 75, (R)-1-((1-(5-Amino-6-(2,3-dichlorophenyl)-1,2,4-triazin-3-yl)azetidin-3-yl)oxy)-3-methoxypropan-2-ol]				
best exposure after oral dosing		CC(CO)(CO)Nc1nnc(-c2cccc(Cl)c2Cl)c(N)n1 [Compound 47, 2-((5-Amino-6-(2,3-dichlorophenyl)-1,2,4-triazin-3-yl)amino)-2-methylpropane-1,3-diol]				
best exposure after oral dosing		C[C@@H]1CN(c2nnc(-c3cccc(Cl)c3Cl)c(N)n2)C[C@H](C)N1 [Compound 118, 3-N-(3′,5′-dimethylpiperazin-1-yl) lamotrigine]				
best exposure after oral dosing		Nc1nc(NCCOCCOCCOC(F)F)nnc1-c1cccc(Cl)c1Cl [Compound 57, 6-(2,3-Dichlorophenyl)-N^3-(2-(2-(2-(difluoromethoxy)ethoxy)ethoxy)ethyl)-1,2,4-triazine-3,5-diamine]				
best exposure after oral dosing	most favorable pharmacokinetics	Nc1nc(N2CCN(C[C@@H](O)COCC(F)(F)F)CC2)nnc1-c1cccc(Cl)c1Cl [Compound 94, (R)-1-(4-(5-amino-6-(2,3-dichlorophenyl)-1,2,4-triazin-3-yl)-piperazin-1-yl)-3-(2,2,2-trifluoroethoxy)-propan-2-ol]				
best exposure after oral dosing		COCCOCCOCC(C)Nc1nnc(-c2cccc(Cl)c2Cl)c(N)n1 (centres unmarked) [Compound 188, 6-(2,3-dichlorophenyl)-N3-(1-(2-(2-methoxyethoxy)ethoxy)propan-2-yl)-1,2,4-triazine-3,5-diamine.HCl]				
best exposure after oral dosing	most favorable pharmacokinetics	COC(=O)[C@@H]1C[C@@H](O)CN1c1nnc(-c2cccc(Cl)c2Cl)c(N)n1 [Compound 65, (2S,4R)-Methyl 1-(5-amino-6-(2,3-dichlorophenyl)-1,2,4-triazin-3-yl)-4-hydroxypyrrolidine-2-carboxylate]				
best exposure after oral dosing	most favorable pharmacokinetics	Nc1nc(N2CCN(CC(O)COC(F)(F)F)CC2)nnc1-c1cccc(Cl)c1Cl (centres unmarked) [Compound 27, 1-(4-(5-Amino-6-(2,3-dichlorophenyl)-1,2,4-triazin-3-yl)piperazin-1-yl)-3-(trifluoromethoxy)propan-2-ol]				
